The structures appear in SMILES notation. Like-named read-outs stand apart in the source and are kept apart here.

The test system of one series is MDCK cells. The conditions noted are these: cited from earlier work.
Series [1] relates to A/California/04/2009 (H1N1) virus. The series is described as follows: microbe, parasite or virus in culture. The series is classed as cell-based, Influenza A virus. The conditions noted are these: for EC50: Influenza A virus.
The subject of a further series is Ca/04 (H1N1) virus. The arrangement: species or system mice. The conditions noted are these: mouse, in vivo.
The conditions of series [2]: mouse, in vivo.
Series [3] deals with several contemporary influenza A viruses. Description: microbe, parasite or virus in culture. The settings on record: read-out: EC50 values against all IAVs tested. The series is classed as cell-based.
The next series in a line: in vivo. The conditions noted are these: male, BALB/c, mouse, ip, 50 mg/kg.
A further series in a line: in vitro. The conditions noted are these: dog.

As to `CCC(CC)O[C@@H]1C=C(C(=O)O)C[C@H](N)[C@H]1NC(C)=O` [Oseltamivir carboxylate], in the series with MDCK cells, the CC50 was over 20000 nM.

Take `CCOC(=O)C1=C[C@@H](OC(CC)CC)[C@H](NC(C)=O)[C@@H](N)C1` [Oseltamivir, Oseltamivir phosphate, reference compound]: the EC50 (commonly the concentration giving half of the maximal effect) in series [1] (H1N1, read-out: EC50 alone Oseltamivir (nM)) stood at 1.77 ± 0.11 nM. For the same molecule, in the series with Ca/04 (H1N1) virus, the “Clinical signs: activity” value is given as “remained alert”, the “Clinical signs: physical appearance” value was “mild clinical signs”, the “Influenza virus nucleoprotein in lungs by immunostaining” value is “mild-moderate amounts of viral antigens” and the “Loss of initial body weight” value is on record as about 15%. For the same molecule, in the series on Ca/04 (H1N1) virus, the Survival is 85%; the “Virus titers in lung and NT by TCID50 vs Ca/04-vehicle group” value is reported as “trend towards reduced virus load”. Moreover, the “Histopathology of brain, livers, kidneys, lungs and hearts” value in series [2] was “no signs of toxicity”.

As to `OC12CC3CC(C1)CC(NCc1ccc(I)s1)(C3)C2` [UAWJ106], the CC50 in the series with MDCK cells was over 100000 nM.

Take `[2H]C(NC12CC3CC(CC(O)(C3)C1)C2)c1ccc(I)s1` (stereo not shown) [UAWJ280, 3-{[(5-iodothiophen-2-yl)(D)methyl]amino}adamantan-1-ol]: the EC50 in series [3] lay in the range of 200 to 600 nM. The “Combination effect with oseltamivir in cell culture” value in series [1] was “strong synergistic antiviral effect”. Besides, the EC50 in series [1] (H1N1, read-out: EC50 alone UAWJ280 (μM)) stood at 300 ± 18 nM. For the same molecule, in the series with Ca/04 (H1N1) virus, the “Clinical signs: activity” value is given as “minor changes in activity”, the “Clinical signs: physical appearance” value is listed as “mild clinical signs”, the “Influenza virus nucleoprotein in lungs by immunostaining” value is “moderate amounts of virus nucleoprotein” and the “Loss of initial body weight” value is on record as about 15%. In the series with Ca/04 (H1N1) virus, the “Section with pneumocyte type 2 hyperplasia and hypertrophy, alveolar oedema and inflammation” value is listed as “up to 80%”; the Survival is reported as 90%; the “Virus titers in lung and NT by TCID50 vs Ca/04-vehicle group” value is “trend towards reduced virus load”. Besides, the “Histopathology of brain, livers, kidneys, lungs and hearts” value in series [2] was “no signs of toxicity”. For the same molecule, in “in vivo”, the AUC(0-inf) (usually the area under the concentration-time curve extrapolated to infinity) stood at 11.5 µM·h; the CL/F – broadly, clearance divided by bioavailability, as obtained after extravascular dosing – is 187 mL/min/kg; the concentration peaked (Cmax) at 5.61 µM; the Tmax (usually the time at which the peak concentration occurs) is 0.42 h. In “in vivo”, the Vd/F – broadly, the apparent distribution volume after extravascular dosing – stood at 38 ± 4.4 L/kg and the half-life – broadly, the time needed for the level to fall by half in the phase considered – was 2.34 h. The CC50 in the series “in vitro” was over 100000 nM.
